“Also recorded” adds a separate entry of the source.

The test system of one assay is SARS-CoV-2. Briefly: Infection of Huh7.5 cells by replication competent SARS-CoV-2, qRT-PCR. It is filed as cell-based. The note with it: 10 μM, 24 hours post inoculation, FIG. 3. The procedure: FIG. 3 illustrates the finding that only certain Sigma1 inhibitors block SARS-CoV-2 infection. […] Results can be compared to vehicle (DMSO), Remdesivir (Rem, 10 μM), and hydroxychloroquine (HCQ, 10 μM). Compounds and SARS-CoV-2 were added to cell culture; 24 hours post inoculation relative infection calculated by qRT-PCR.
A discrete set of Sigma1 modulators was tested in an assay of replication competent SARS-CoV-2 infectivity. […] Strikingly, IPAG, CT189, and CT1107 blocked SARS-CoV-2 infection by 1,000 (IPAG, CT189, CT360) to 10,000 (CT1107) fold.
In general terms: Quantitative PCR measures a nucleic acid by following its amplification.

The target in another assay is T1, Androgen Receptor (Homo sapiens, UniProt P10275).
T1 sequence (P10275 1-920): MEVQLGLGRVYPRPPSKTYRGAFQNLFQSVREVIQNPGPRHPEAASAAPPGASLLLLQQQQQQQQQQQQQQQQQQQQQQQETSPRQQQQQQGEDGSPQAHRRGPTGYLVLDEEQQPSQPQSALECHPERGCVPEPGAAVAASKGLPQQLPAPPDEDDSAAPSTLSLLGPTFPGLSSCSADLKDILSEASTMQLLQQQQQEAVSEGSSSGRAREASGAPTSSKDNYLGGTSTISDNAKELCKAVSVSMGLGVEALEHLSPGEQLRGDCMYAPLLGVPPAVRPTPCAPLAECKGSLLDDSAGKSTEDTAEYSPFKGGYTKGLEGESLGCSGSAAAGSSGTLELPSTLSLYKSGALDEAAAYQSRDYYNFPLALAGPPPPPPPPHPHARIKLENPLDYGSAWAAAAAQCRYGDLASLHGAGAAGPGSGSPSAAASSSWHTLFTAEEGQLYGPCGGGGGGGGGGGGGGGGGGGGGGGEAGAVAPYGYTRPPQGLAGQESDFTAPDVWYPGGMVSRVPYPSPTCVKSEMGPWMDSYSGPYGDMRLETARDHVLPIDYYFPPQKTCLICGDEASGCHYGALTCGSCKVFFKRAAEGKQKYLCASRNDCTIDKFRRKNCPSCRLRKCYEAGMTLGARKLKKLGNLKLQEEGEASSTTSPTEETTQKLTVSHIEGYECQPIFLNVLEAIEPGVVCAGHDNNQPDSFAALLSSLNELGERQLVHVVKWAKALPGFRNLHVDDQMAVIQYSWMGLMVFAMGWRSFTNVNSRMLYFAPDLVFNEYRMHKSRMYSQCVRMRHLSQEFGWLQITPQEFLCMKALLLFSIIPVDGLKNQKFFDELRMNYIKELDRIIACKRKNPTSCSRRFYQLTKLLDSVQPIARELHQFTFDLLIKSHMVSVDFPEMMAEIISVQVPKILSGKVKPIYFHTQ

The subject of another assay is TMPRSS2 mRNA transcript. Briefly: TMPRSS2 transcript levels in LNCaP cells. The note with it: 10 μM, FIG. 1B.

As for `N=C(Nc1ccc(I)cc1)NC1C2CC3CC(C2)CC1C3` (stereo not shown) [IPAG, reference compound], in the assay on SARS-CoV-2, the “blocked SARS-CoV-2 infection, fold” value is 1,000 fold and the “effect on SARS-CoV-2 infection (in words)” value is listed as “suppressed SARS-CoV-2 infection; also recorded: inhibit SARS-CoV-2 infection”. The “dihydrotesterone (DHT) induced AR transcriptional activity” value at Androgen Receptor is on record as “inhibition”. In addition, in the assay with TMPRSS2 mRNA transcript, the TMPRSS2 transcript entry is reported as “decreased”.

Source of the values: patent US12582619B2 (priority 2020, dated 2026).
